Assay: Thermal behaviour (TGA melting range apparatus Mettler TG 50, confirmed by DSC Mettler DSC 30)
Conditions: for decomposition temperature: heat ramp 20° C./min (TGA/DSC)

Structure (SMILES)	decomposition temperature	thermal stability of one crystal form compared with the other (FT-IR, powder x-ray and TGA / DSC-TGA comparison of Form I and Form II)	decomposition temperature (listed as 7-(dimethoxy-methyl)camptothecin form I)	decomposition temperature (listed as form I)
CC[C@@]1(O)C(=O)OCc2c1cc1n(c2=O)Cc2c-1nc1ccccc1c2C(OC)OC [Form II, (4S)-11-(dimethoxymethyl)-4-ethyl-4-hydroxy-1H-pyrano[3′,4′:6,7]indolizino[1,2-b]quinoline-3,14(4H,12H)-dione]	173.56 °C	–	–	–
CC[C@@]1(O)C(=O)OCc2c1cc1n(c2=O)Cc2c-1nc1ccccc1c2C(OC)OC [Form I, 7-(dimethoxy-methyl)camptothecin]	–	less stable	123.38 °C	123.38 °C
